# Data taken from US11638424B2, “Mosquito attractant formulations and uses thereof” (priority 2017, dated 2023).
# Legend:
# [1] = system: RBCs; assay: CO2 production of RBCs (GC-MS and quantitative respirometry, IRGA); format: cell-based, Human; conditions: 10 μM HMBPP, FIG. 2B
# Description: RBCs (1 ml) were transferred to 4 ml glass vials closed with auto-sampler screw caps, and equilibrated in a thermostat at 38° C. for 15 min. Then, 2.5 μl of HMBPP or Nanopure water were added to the RBCs samples (final concentration: 10 μM HMBPP per sample). Volatiles were collected from the headspace using solid phase micro-extraction (SPME; Supelco, Bellmonte, Pa., USA) (M. J. Yang, el al., J. Chem. Educ., 74, 1130-1132 (1997) and A. K. Borg-Karlson and R. Mozuraitis, Naturforsch., C. 51, 599-602 (1996)). […] Electron ionisation mass spectra were determined at 70 eV with the ion source kept at 230° C. and mass spectra were obtained at mass to charge ratio (m/z) 29-400. […] A similar protocol was used for the quantification of CO2, with the mass spectral data and GC retention times being compared with emission from frozen CO2. The relative amounts of CO2 in arbitrary units were determined from the areas of the respective chromatogram peaks using single ion display mode at m/z 44±0.5 Da. The amounts of identified compounds were quantified by the use of extracted ion chromatograms, since they are very minute. […] The estimations were based on the very same quantifications given in ‘arbitrary area units’. […]
# [2] = system: A. gambiae sensu lato; assay: Dual choice attraction bioassay (Y-tube olfactometer); format: in vivo; conditions: FIG. 1A
# Description: Mosquitoes used in this study were from the laboratory colony of A. gambiae sensu lato (Keele line, University of Glasgow), which was produced by balanced interbreeding of four A. gambiae s.s. strains (H. Hurd, et al. Evolution, 59, 2560-2572 (2005)). Larvae were reared under standard insectary conditions (27±1° C., 70% humidity, 12 h light: 12 h dark cycle) and fed on TetraMin fish flakes (Tetra ltd., Germany). Pupae were transferred into holding cages for emergence. Emerged adults were fed ad libitum on 5% glucose solution, supplemented with 0.05% (w/v) 4-aminobenzoic acid (PABA, Sigma-Aldrich), through soaked filters on top of the 2 ml tubes and with soaked filter pads inside cages. Red blood cells (RBCs) were washed with Roswell Park Memorial Institute (RPMI) medium and stored in RPMI at 50% haematocrit at 4° C. until use. To measure the effect of HMBPP on mosquito fitness, RBCs stored in RPMI were centrifuged at 2500×g for 5 min followed by replacement of the medium with AB serum for a final haematocrit of 40%. HMBPP (stock concentration at 4 mM in Nanopure water, stored at −80° C.) was diluted to 10 μM in 1 ml RBC suspension, and the corresponding volume of Nanopure water was added to the control RBCs. All experiments were, unless otherwise stated, conducted on 5-7 days post-emergence female mosquitoes maintained in separated cages (approximately 210 individuals per cohort) and fed RBCs either with or without HMBPP for 30 min. All experiments were performed in triplicates.
# Initial experiments were performed using a Y-tube olfactometer (length of the central cylinder and two arms: 25/15/15 cm respectively, inner diameter: 5 cm; see FIG. 1a). For each experiment, 180 female mosquitoes were individually placed in a release chamber and flown one by one. Females flew towards the upwind end (airflow 3 L min^−1) and entered one of two trapping chambers through which odour released from nearby membrane feeders passed (5 cm distance to each trapping chamber). Three experiments were conducted. In the first experiment, the membrane feeders were loaded with RBCs with or without HMBPP, while in the second they were loaded with serum with or without HMBPP. The third experiment was performed with a 5% glucose with 0.05% PABA solution with or without HMBPP. To control for possible spatial effects, the location of treatment at each olfactometer arm was switched every 30 minutes (˜15 mosquitoes flied one by one in each 30 minutes). Each replacement (feeder rotation with fresh RBCs) was counted as an experimental replicate (experimental block). Mosquitoes reaching any of the trapping chambers were considered to have made a choice. Each experiment was repeated six times with in total 180 mosquitoes per treatment.
smiles,measurement,setting,value
"C/C(=C\COP(=O)(O)OP(=O)(O)O)CO [HMBPP, (E)-4-hydroxy-3-methyl-but-2-enyl pyrophosphate]",increase of the amount of CO2 released into the gas headspace above hRBC suspensions compared to RBCs alone,[1],16%
same,host-seeking mosquitoes that chose HMBPP-supplemented RBCs (hRBCs) over RBCs,[2]; RBCs with 10 μM HMBPP vs RBCs,95%
same,attraction to HMBPP-supplemented glucose solution,"[2]; glucose solution (5%) containing PABA 0.05%, with vs without HMBPP","did not, however, increase attraction"
same,attraction to HMBPP-supplemented serum,[2]; serum with vs without HMBPP,"did not, however, increase attraction"
